Laboratory results taken from publication PMC12226733, “Evolution of iGluR ligand specificity, polyamine regulation, and ion selectivity inferred from a placozoan epsilon receptor” (Communications Biology, 2025).
“And” between values parts separate entries of the source, which are not always exact repeats. Equal entries are not always repeated. “Also recorded” adds a separate entry of the source. Where two headings read alike, the source gives them in different places.

Legend:
[1] = target: T. adhaerens GluE1αA receptor (wildtype) (Trichoplax adhaerens, UniProt B3SAW0); test: whole-cell patch clamp, agonist-evoked currents in CHO-K1 cells; type: cell-based; details: for sensitivity to agonist: 1 mM
Sequence of T. adhaerens GluE1αA receptor (wildtype) (B3SAW0 entry or part of it): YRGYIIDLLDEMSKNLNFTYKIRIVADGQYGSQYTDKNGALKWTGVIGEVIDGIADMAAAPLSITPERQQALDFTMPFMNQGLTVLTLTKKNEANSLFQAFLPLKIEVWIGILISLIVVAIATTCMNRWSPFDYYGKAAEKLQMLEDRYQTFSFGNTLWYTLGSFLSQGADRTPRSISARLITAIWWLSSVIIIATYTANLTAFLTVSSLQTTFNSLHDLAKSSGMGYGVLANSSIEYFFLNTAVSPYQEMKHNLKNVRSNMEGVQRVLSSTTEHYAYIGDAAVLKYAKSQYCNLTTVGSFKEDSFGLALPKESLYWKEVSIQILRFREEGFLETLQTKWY

[2] = tested on: GluE1αA m1 variant (F732Y); type: cell-based, Trichoplax adhaerens; details: m1; ligand 10 mM; normalized to glycine
Text: (§1) As noted, a model has been put forward that defines iGluR ligand specificity based on a set of key amino acids in the LBD of iGluRs[11]. […] To the best of our knowledge, whether these few positions are indeed solely responsible for ligand specificity, and moreover, can be altered to switch specificity for natural ligands, has not been experimentally tested. […] We also created a triple mutant, with an additional phenylalanine to tyrosine mutation at position 732 (F732Y; m3 variant), to make the T. adhaerens epsilon receptor resemble GluN2A and GluA2 receptors from human, reasoning that this mutation might enhance glutamate sensitivity. We also generated a single F732Y mutant (m1 variant), to assess the contribution of this amino acid to ligand specificity in isolation.
(§2) The cDNA of the T. adhaerens GluE1αA receptor was cloned into the mammalian expression vector pIRES2-EGFP, using a 5’ nested primer that inserted a mammalian consensus Kozak sequence of […] (Supplementary Table 5). Several mutants/variants of this receptor where also prepared via site directed mutagenesis using standard procedures and primers listed in Supplementary Table 5. For electrophysiological comparisons, we commissioned GenScript (USA) to synthesize the cDNA of the human GluA2 […] receptor (NCBI accession number NP_001077088.2), which was cloned into the pIRES2-EGFP vector with a Kozak sequence flanking the start codon and restriction enzymes SalI and BamHI at the 5’ and 3’ ends of the cDNA, respectively. Receptor cDNAs in the various pIRES2 constructs were transfected into Chinese Hamster Ovary-K1 (CHO-K1; Sigma) cells cultured in Dulbecco’s Modified Eagle Medium Nutrient Mixture F-12 (DMEM/F12) supplemented with 10% Fetal Bovine Serum (FBS) and 1% penicillin-streptomycin at 37°C. Transfections were done with 2 μg of plasmid vector using the transfecting reagent PolyJet^TM (SignaGen Laboratories, USA) according to the manufacturer’s instructions and plated onto glass coverslips in 35 mm dishes the next day. Transfected cells were incubated at 28°C for 2 to 4 days, then coverslips were transferred to a new 60 mm dish with 5 mL of external recording solution. […] Agonists and pharmacological compounds used in this study were dissolved in corresponding external solutions. […] Patch pipettes were pulled using a P-1000 micropipette puller (Sutter, USA), from thick-walled borosilicate tubing (1.5 and 0.86 outer and inner diameter, respectively), to a resistance of between 1 and 6 megaohms.

[3] = tested on: GluE1αA m2 variant (S653G, I655T); type: cell-based, Trichoplax adhaerens; details: m2
Text: as §1, §2

[4] = tested on: GluE1αA m3 variant (S653G, I655T, F732Y); type: cell-based, Trichoplax adhaerens
Text: as §1, §2

[5] = ligand tested on its own at 10 mM
[6] = wild type, ligand 10 mM, normalized to glycine
[7] = ligand 10 mM, normalized to glutamate
[8] = tested as a single mix each at 3 mM

SMILES: C[C@H](N)C(=O)O [alanine, L-alanine]
- normalized current (dose response), Avg [1]: 0.80
- normalized current (dose response), single recording [1]: 0.66 and 0.73 and 0.79 and 0.89 and 0.75 and 0.91 and 0.87 and 0.80
- activation of ligand-gated current [1, 5]: activated
- normalized peak inward current, Avg [1, 6]: 0.89
- normalized peak inward current, single recording [1, 6]: 0.85 and 0.96 and 0.83 and 1.00 and 0.82
- normalized current (dose response), Avg ([1]; wildtype, ligand 0.01 mM): 0.0244
- normalized current (dose response), Avg ([1]; wildtype, ligand 0.03 mM): 0.28
- normalized current (dose response), Avg ([1]; wildtype, ligand 0.30 mM): 1.00
- normalized current (dose response), single recording ([1]; wildtype, ligand 0.30 mM): 1.00
- normalized current (dose response), Avg ([1]; wildtype, ligand […]): 0.60
- normalized peak inward current, Avg [2]: 1.12
- normalized peak inward current, single recording [2]: 1.10 and 1.06 and 1.08 and 1.13 and 1.23
- normalized peak inward current, Avg [3, 7]: 0.36
- normalized peak inward current, single recording [3, 7]: 0.33 and 0.37 and 0.40 and 0.41 and 0.31
- normalized peak inward current, Avg ([4]; m3, ligand 10 mM, normalized to glutamate): 0.0342

SMILES: N[C@@H](CC(=O)O)C(=O)O [aspartate]
- activation of ligand-gated current [1, 5]: no responses

SMILES: N[C@@H](Cc1ccccc1)C(=O)O [phenylalanine]
- activation of ligand-gated current [1, 8]: no responses

SMILES: CSCC[C@H](N)C(=O)O [methionine]
- activation of ligand-gated current [1]: no responses

SMILES: N=C(N)NCCC[C@H](N)C(=O)O [arginine]
- activation of ligand-gated current [1, 5]: no responses

SMILES: N[C@@H](Cc1c[nH]cn1)C(=O)O [histidine]
- activation of ligand-gated current [1, 8]: no responses

SMILES: CC[C@H](C)[C@H](N)C(=O)O [isoleucine]
- activation of ligand-gated current [1, 8]: no responses

SMILES: C=C(C)[C@H]1CN[C@H](C(=O)O)[C@H]1CC(=O)O [kainate]
- normalized peak inward current, Avg ([1]; wild type, agonist 1 mM): 0.00265
- sensitivity to agonist ([1]; wildtype): insensitivity; also recorded: not sensitive
- normalized peak inward current, Avg ([3]; agonist 1 mM): 0.00537
- normalized peak inward current, Avg ([4]; m3, agonist 1 mM): 0.00374

SMILES: C[C@@H](O)[C@H](N)C(=O)O [threonine]
- activation of ligand-gated current [1, 5]: no responses

SMILES: Cc1onc(O)c1CC(N)C(=O)O (stereo not drawn) [AMPA, α-amino-3-hydroxy-5-methyl-4-isoxazolepropionic acid]
- normalized peak inward current, Avg ([1]; wild type, agonist 1 mM): 0.00463
- sensitivity to agonist ([1]; wildtype): insensitivity; also recorded: not sensitive
- normalized peak inward current, Avg ([3]; agonist 1 mM): 0.00676
- normalized peak inward current, Avg ([4]; m3, agonist 1 mM): 0.36
- normalized peak inward current, single recording ([4]; m3, agonist 1 mM): 0.33 and 0.26 and 0.30 and 0.41 and 0.44 and 0.43
- sensitivity to agonist ([4]; m3 variant, 1 mM): moderate responses; also recorded: sensitive
- peak amplitude relative to current elicited by 1 mM glutamate ([4]; m3 variant, 1 mM AMPA, slow desensitizing currents): roughly 36%

SMILES: CN[C@H](CC(=O)O)C(=O)O [NMDA, N-methyl-D-aspartate]
- normalized peak inward current, Avg ([1]; wild type, agonist 1 mM): 0.00229
- sensitivity to agonist ([1]; wildtype): insensitivity; also recorded: not sensitive
- normalized peak inward current, Avg ([3]; agonist 1 mM): 0.0107
- normalized peak inward current, Avg ([4]; m3, agonist 1 mM): 0.00471

SMILES: N[C@@H](Cn1oc(=O)[nH]c1=O)C(=O)O [quisqualate]
- normalized peak inward current, Avg ([1]; wild type, agonist 1 mM): 0.00248
- sensitivity to agonist ([1]; wildtype): not sensitive
- normalized peak inward current, Avg ([3]; agonist 1 mM): 0.00939
- normalized peak inward current, Avg ([4]; m3, agonist 1 mM): 0.01

SMILES: C[N+](C)(C)CC(=O)O [betaine]
- activation of ligand-gated current [1, 5]: no responses

SMILES: NCCCC[C@H](N)C(=O)O [lysine]
- activation of ligand-gated current [1, 8]: no responses

SMILES: CC(C)C[C@H](N)C(=O)O [leucine]
- activation of ligand-gated current [1, 8]: no responses
